# Legend:
# [1] = test system: human peripheral blood lymphocytes (PBMCs); assay: hPBMC assay: IFN-γ and IFN-α production by human PBMCs (ELISA); assay type: cell-based
# [2] = test system: plasmacytoind dendritic cells (PDCs) of human PBMCs; assay: Intracellular staining and FACS analysis of IFN-α production from PDCs; assay type: cell-based; settings: double-staining cells as percentage of total PBMCs, 20 μg/mL oligonucleotide, 100 μg/mL PMXB, six hours
# Method: Intracellular staining assays and FACS analysis were used to examine IFN-α production from the plasmacytoind dendritic cells (PDCs) of human PBMCs. […] For these assays, the IMC or -ISS and the polymyxin were added separately to the PBMC cell culture which contained human serum albumin. […] After the six hours, the cells were stained with a fluorescently labeled PDC marker, anti-BCDA-2 labeled with FITC, and with anti-IFN-α labeled with PE. FACS analysis of the labeled cells was performed.
# K562 cells = assay: NK cell lytic activity of stimulated PBMCs against 51Cr-loaded K562 cells; assay type: cell-based, human; settings: 10 μg/mL IMC, 100 μg/mL PMXB, 48 hours
# Method: IMC particulate formulations were tested for NK cell stimulatory activity. PBMCs from two donors were stimulated for 48 hours with 10 μg/mL IMC (“+ISS”) 5′-[…]-3′ (SEQ ID NO:1) with or without 100 μg/mL PMXB. The PBMCs were then assayed for lytic activity against K562 cells loaded with ^51Cr as target cells. For controls, K562 cells were cultured alone, K562 cells were lysed with Triton and K562 cells were stimulated with untreated PBMC cells. Determination of ^51CR released into culture media was used to measure the extent of target cell lysis. The presence of PMXB increased the NK cell lytic activity stimulated by the IMC alone.
# mouse lung cells = assay: Gene modulation in mouse lung after intranasal instillation (TAQMAN, relative cycle thresholds; Table 18); assay type: in vivo; set-up: Relative Cycle Thresholds (CTs), IFN-α2 / Relative Cycle Thresholds (CTs), BCA-1 / Relative Cycle Thresholds (CTs), IP-10 / Relative Cycle Thresholds (CTs), MIP-1b / Relative Cycle Thresholds (CTs), 12/15-lipoxg: reference not given here; settings: 6 hours after intranasal instillation
# Method: Modulation of a variety of genes in response to immunomodulatory formulations was measured in mouse lung cells.
# Particulate formulations were produced by first preparing either a 1 mg/mL +ISS, 0.4% TWEEN® 85, 0.4% oleate solution or a 20 mg/mL HSA solution, then making that solution 5 mg/ml in PMXB. The formulations were allowed to stand for 24 hours at room temperature, then dialyzed using a 10 kDa membrane. Particulate formulations and +ISS alone (50 μL dose) were administered by intranasal instillation to lightly anesthetized mice (5 mice per group). Animals were sacrificed 6 hours after administration, lung tissue was surgically removed, and cell suspensions were made by homogenization of the lung tissue. cDNA was synthesized from RNA isolated from the cell suspensions, and RNA was quantitated using TAQMAN® Technology. The particulate formulations induced significant increases in the majority of the genes tested.
# [3] = Donor 198, no Time given, 20 μg/ml oligonucleotide
# [4] = Donor 199, no Time given, 20 μg/ml oligonucleotide
# [5] = Donor 28212, Controls, 20 μg/ml oligonucleotide, 100 μg/ml polymyxin
# [6] = Donor 28213, Controls, 20 μg/ml oligonucleotide, 100 μg/ml polymyxin
# [7] = Donor 28232, no Time given, 20 μg/ml oligonucleotide, 100 μg/ml polymyxin
# [8] = Donor 28233, no Time given, 20 μg/ml oligonucleotide, 100 μg/ml polymyxin
# [9] = Donor # 9, 20 μg/ml oligonucleotide, 100 μg/ml PMXB, 24 hours
# [10] = Donor # 37, 20 μg/ml oligonucleotide, 100 μg/ml PMXB, 24 hours
# [11] = Donor # 86, 20 μg/ml oligonucleotide, 100 μg/ml PMXB, 24 hours
# [12] = Donor # 87, 20 μg/ml oligonucleotide, 100 μg/ml PMXB, 24 hours
# [13] = Donor # 88, 20 μg/ml oligonucleotide, 100 μg/ml PMXB, 24 hours
# [14] = Donor # 89, 20 μg/ml oligonucleotide, 100 μg/ml PMXB, 24 hours
# [15] = Donor # 90, 20 μg/ml oligonucleotide, 100 μg/ml PMXB, 24 hours
# [16] = Donor # 91, 20 μg/ml oligonucleotide, 100 μg/ml PMXB, 24 hours
# [17] = Donor # 94, 20 μg/ml oligonucleotide, 100 μg/ml PMXB, 24 hours
# [18] = Donor # 95, 20 μg/ml oligonucleotide, 100 μg/ml PMXB, 24 hours
# [19] = Mean (Table 4), Controls, 20 μg/ml oligonucleotide, 100 μg/ml polymyxin
# [20] = Mean (Table 5), no Time given, 20 μg/ml oligonucleotide
# [21] = Mean (Table 6), no Time given, 20 μg/ml oligonucleotide, 100 μg/ml polymyxin
# [22] = Mean of donors (Table 2), 20 μg/ml oligonucleotide, 100 μg/ml PMXB, 24 hours
# [23] = Table 3, Donor 1, PMXB 100 μg/ml, AMTB 10 μg/ml, serum containing medium
# [24] = Table 3, Donor 2, PMXB 100 μg/ml, AMTB 10 μg/ml, serum containing medium
# [25] = Table 3, Mean, PMXB 100 μg/ml, AMTB 10 μg/ml, serum containing medium
# [26] = Table 9, Mean, 20 μg/ml oligonucleotide, 100 μg/ml polymyxin
# [27] = Table 9, donor 149, 20 μg/ml oligonucleotide, 100 μg/ml polymyxin
# [28] = Table 9, donor 208, 20 μg/ml oligonucleotide, 100 μg/ml polymyxin
# [29] = Table 10, donor 1, 20 μg/ml oligonucleotide, 100 μg/ml polymyxin derivative added separately, 24 hours
# [30] = Table 10, donor 2, 20 μg/ml oligonucleotide, 100 μg/ml polymyxin derivative added separately, 24 hours
# [31] = Table 10, donor 3, 20 μg/ml oligonucleotide, 100 μg/ml polymyxin derivative added separately, 24 hours
# [32] = Table 10, donor 4, 20 μg/ml oligonucleotide, 100 μg/ml polymyxin derivative added separately, 24 hours
# [33] = Table 10, donor 5, 20 μg/ml oligonucleotide, 100 μg/ml polymyxin derivative added separately, 24 hours
# [34] = Table 10, donor 6, 20 μg/ml oligonucleotide, 100 μg/ml polymyxin derivative added separately, 24 hours
# [35] = Table 10, mean of 6 donors, 20 μg/ml oligonucleotide, 100 μg/ml polymyxin derivative added separately, 24 hours
# [36] = Effector:Target ratio 12.5:1, donor 2
substance,measurement,setting,value
5′-TGACTGTGAACGTTCGAGATGA-3′ [+ISS],IFN-α,[1]; [3],224 pg/mL
same,IFN-γ,[1]; [3],10 pg/mL
same,IFN-α,[1]; [4],277 pg/mL
same,IFN-γ,[1]; [4],167 pg/mL
same,IFN-α,[1]; [5],135 pg/mL
same,IFN-γ,[1]; [5],5 pg/mL
same,IFN-α,[1]; [6],109 pg/mL
same,IFN-γ,[1]; [6],17 pg/mL
same,IFN-Υ,[1]; [7],276 pg/mL
same,IFN-α,[1]; [7],9 pg/mL
same,IFN-Υ,[1]; [8],20 pg/mL
same,IFN-α,[1]; [8],103 pg/mL
same,IFN-α,[1]; [9],131 pg/mL
same,IFN-γ,[1]; [9],20 pg/mL
same,IFN-γ,"[1]; Donor # 20, 20 μg/ml oligonucleotide, 100 μg/ml PMXB, 24 hours",291 pg/mL
same,IFN-α,[1]; [10],70 pg/mL
same,IFN-γ,[1]; [10],15 pg/mL
same,IFN-γ,"[1]; Donor # 75, 20 μg/ml oligonucleotide, 100 μg/ml PMXB, 24 hours",22 pg/mL
same,IFN-α,[1]; [11],358 pg/mL
same,IFN-γ,[1]; [11],182 pg/mL
same,IFN-α,[1]; [12],212 pg/mL
same,IFN-γ,[1]; [12],341 pg/mL
same,IFN-α,[1]; [13],264 pg/mL
same,IFN-γ,[1]; [13],367 pg/mL
same,IFN-α,[1]; [14],207 pg/mL
same,IFN-γ,[1]; [14],100 pg/mL
same,IFN-α,[1]; [15],119 pg/mL
same,IFN-γ,[1]; [15],13 pg/mL
same,IFN-α,[1]; [16],0 pg/mL
same,IFN-γ,[1]; [16],27 pg/mL
same,IFN-α,[1]; [17],274 pg/mL
same,IFN-γ,[1]; [17],30 pg/mL
same,IFN-α,[1]; [18],26 pg/mL
same,IFN-γ,[1]; [18],6 pg/mL
same,IFN-γ,"[1]; Donor # 96, 20 μg/ml oligonucleotide, 100 μg/ml PMXB, 24 hours",49 pg/mL
same,IFN-γ,"[1]; Donor # 97, 20 μg/ml oligonucleotide, 100 μg/ml PMXB, 24 hours",23 pg/mL
same,IFN-α,[1]; [19],122 pg/mL
same,IFN-γ,[1]; [19],11 pg/mL
same,IFN-α,[1]; [20],250 pg/mL
same,IFN-γ,[1]; [20],88 pg/mL
same,IFN-Υ,[1]; [21],148 pg/mL
same,IFN-α,[1]; [21],56 pg/mL
same,IFN-α,[1]; [22],166 pg/mL
same,IFN-γ,[1]; [22],106 pg/mL
same,IFN-α,[1]; [23],11 pg/mL
same,IFN-γ,[1]; [23],29 pg/mL
same,IFN-α,[1]; [24],2 pg/mL
same,IFN-γ,[1]; [24],0 pg/mL
same,IFN-α,[1]; [25],6 pg/mL
same,IFN-γ,[1]; [25],15 pg/mL
same,IFN-Υ,[1]; [26],76 pg/mL
same,IFN-α,[1]; [26],41 pg/mL
same,IFN-Υ,[1]; [27],78 pg/mL
same,IFN-α,[1]; [27],59 pg/mL
same,IFN-Υ,"[1]; Table 9, donor 206, 20 μg/ml oligonucleotide, 100 μg/ml polymyxin",5 pg/mL
same,IFN-Υ,[1]; [28],146 pg/mL
same,IFN-α,[1]; [28],32 pg/mL
same,IFN-α,"[1]; Table 9, donor 209, 20 μg/ml oligonucleotide, 100 μg/ml polymyxin",32 pg/mL
same,IFN-α,[1]; [29],263 pg/mL
same,IFN-γ,[1]; [29],13 pg/mL
same,IFN-α,[1]; [30],225 pg/mL
same,IFN-γ,[1]; [30],3 pg/mL
same,IFN-α,[1]; [31],52 pg/mL
same,IFN-γ,[1]; [31],2 pg/mL
same,IFN-α,[1]; [32],52 pg/mL
same,IFN-γ,[1]; [32],2 pg/mL
same,IFN-α,[1]; [33],218 pg/mL
same,IFN-γ,[1]; [33],99 pg/mL
same,IFN-α,[1]; [34],26 pg/mL
same,IFN-γ,[1]; [34],14 pg/mL
same,IFN-α,[1]; [35],139 pg/mL
same,IFN-γ,[1]; [35],22 pg/mL
same,BCDA-2/IFN-α d.p. %,[2]; donor 1,0.01%
same,BCDA-2/IFN-α d.p. %,[2]; donor 2,0.03%
same,BCDA-2/IFN-α d.p. %,[2]; mean,0.02%
same,"51Cr released from K562 target cells, cpm1","K562 cells; Effector:Target ratio 6:1, donor 1",6935 cpm
same,"51Cr released from K562 target cells, cpm2",K562 cells; [36],8370 cpm
same,"51Cr released from K562 target cells, mean",K562 cells; [36],8162 cpm
same,"51Cr released from K562 target cells, cpm3","K562 cells; Effector:Target ratio 25:1, donor 1",8048 cpm
same,"Relative Cycle Thresholds (CTs), 12/15-lipoxg",mouse lung cells; gene 12/15-lipoxg,65
same,"Relative Cycle Thresholds (CTs), BCA-1",mouse lung cells; gene BCA-1,5026
same,"Relative Cycle Thresholds (CTs), CD80",mouse lung cells; gene CD80,205
same,"Relative Cycle Thresholds (CTs), CD86",mouse lung cells; gene CD86,103
same,"Relative Cycle Thresholds (CTs), COX-1",mouse lung cells; gene COX-1,2145
same,"Relative Cycle Thresholds (CTs), COX-2",mouse lung cells; gene COX-2,446
same,"Relative Cycle Thresholds (CTs), Eotaxin",mouse lung cells; gene Eotaxin,273
same,"Relative Cycle Thresholds (CTs), G-CSF",mouse lung cells; gene G-CSF,92
same,"Relative Cycle Thresholds (CTs), IFN-α2",mouse lung cells; gene IFN-α2,3
same,"Relative Cycle Thresholds (CTs), IFN-γ",mouse lung cells; gene IFN-γ,25
same,"Relative Cycle Thresholds (CTs), IL-1a",mouse lung cells; gene IL-1a,7523
same,"Relative Cycle Thresholds (CTs), IL-1b",mouse lung cells; gene IL-1b,1643
same,"Relative Cycle Thresholds (CTs), IL-6",mouse lung cells; gene IL-6,755
same,"Relative Cycle Thresholds (CTs), IL-10",mouse lung cells; gene IL-10,4
same,"Relative Cycle Thresholds (CTs), IL-12p40",mouse lung cells; gene IL-12p40,6
same,"Relative Cycle Thresholds (CTs), IL-23",mouse lung cells; gene IL-23,266
same,"Relative Cycle Thresholds (CTs), IP-10",mouse lung cells; gene IP-10,23436
same,"Relative Cycle Thresholds (CTs), LPTN",mouse lung cells; gene LPTN,976
same,"Relative Cycle Thresholds (CTs), MCP-1",mouse lung cells; gene MCP-1,5265
same,"Relative Cycle Thresholds (CTs), MCP-3",mouse lung cells; gene MCP-3,3905
same,"Relative Cycle Thresholds (CTs), MDC",mouse lung cells; gene MDC,2869
same,"Relative Cycle Thresholds (CTs), MIG",mouse lung cells; gene MIG,3411
same,"Relative Cycle Thresholds (CTs), MIP-1a",mouse lung cells; gene MIP-1a,6156
same,"Relative Cycle Thresholds (CTs), MIP-1b",mouse lung cells; gene MIP-1b,12918
same,"Relative Cycle Thresholds (CTs), MIP-2",mouse lung cells; gene MIP-2,1792
same,"Relative Cycle Thresholds (CTs), MIP-3a",mouse lung cells; gene MIP-3a,885
same,"Relative Cycle Thresholds (CTs), MIP-3b",mouse lung cells; gene MIP-3b,2030
same,"Relative Cycle Thresholds (CTs), MMP-8",mouse lung cells; gene MMP-8,1505
same,"Relative Cycle Thresholds (CTs), NOS2",mouse lung cells; gene NOS2,308
same,"Relative Cycle Thresholds (CTs), TARC",mouse lung cells; gene TARC,1505
same,"Relative Cycle Thresholds (CTs), TCA-3",mouse lung cells; gene TCA-3,16
same,"Relative Cycle Thresholds (CTs), TNF-α",mouse lung cells; gene TNF-α,7170
